Key:
Tubulin [1] = target: T1, Tubulin (Bos taurus, UniProt Q6B856+Q862F3); assay: Inhibition of polymerization of purified bovine tubulin; assay type: functional
Cell line = assay: Tested for cytotoxicities and mean graph midpoint (MGM) for growth inhibition of all 55 human cell lines; assay type: functional
Tubulin [2] = target: T1, Tubulin; assay: Effective concentration for enhancement of tubulin assembly rate was determined; assay type: functional
Tubulin (Bos taurus) [3] = target: T2, Tubulin (Bos taurus) (UniProt Q6B856+Q862L2+Q862F3); assay: Compound was evaluated for inhibition of colchicine binding to tubulin in experiment I.; assay type: protein assay; conditions: concentration not given here
Tubulin (Bos taurus) [4] = target: T2, Tubulin (Bos taurus); assay: Compound was evaluated for inhibition of colchicine binding to tubulin in experiment II.; assay type: protein assay; conditions: concentration not given here

T1 sequence (Q6B856 whole entry): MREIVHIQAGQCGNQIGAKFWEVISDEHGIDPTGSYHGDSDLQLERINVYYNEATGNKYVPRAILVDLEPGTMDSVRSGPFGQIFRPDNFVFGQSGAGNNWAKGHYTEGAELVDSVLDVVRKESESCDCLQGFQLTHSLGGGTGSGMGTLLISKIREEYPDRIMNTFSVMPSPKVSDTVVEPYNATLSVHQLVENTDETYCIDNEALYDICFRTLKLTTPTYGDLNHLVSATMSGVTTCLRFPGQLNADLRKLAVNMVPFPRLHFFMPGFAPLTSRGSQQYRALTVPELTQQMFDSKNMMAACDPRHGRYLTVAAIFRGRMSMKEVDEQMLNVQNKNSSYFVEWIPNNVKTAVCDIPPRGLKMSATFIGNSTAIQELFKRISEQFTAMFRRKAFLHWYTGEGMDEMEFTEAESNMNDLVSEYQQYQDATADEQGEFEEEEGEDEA
T1 sequence (Q862F3 whole entry): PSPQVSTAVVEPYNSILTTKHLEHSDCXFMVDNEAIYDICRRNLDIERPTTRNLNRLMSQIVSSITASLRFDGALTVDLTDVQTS

SMILES	IC50 (Tubulin [1])	MGM (Cell line)	EC50 (Tubulin [2])	inhibition (Tubulin (Bos taurus) [3])	inhibition (Tubulin (Bos taurus) [4])
CCOc1cc2c(cc1O)[C@@H](NC(C)=O)CCC1C2CC[C@@]2(C)C1CC[C@@H]2O (some centres undefined)	6.9 µM	7 µM			
CCOc1cc2c(cc1O)C(=O)CCC1C2CC[C@@]2(C)C1CC[C@@H]2OC(C)=O (some centres undefined)			8.2 µM		
CCOc1cc2c(cc1O)/C(=N\OC)C[C@@H]1[C@@H]2CC[C@]2(C)[C@@H](O)CC[C@@H]12		0.27 µM			
CCOc1cc2c(cc1OC(C)=O)C(=O)CCC1C2CC[C@@]2(C)C1CC[C@@H]2OC(C)=O (some centres undefined)	5.5 µM	>100 µM			
CCOc1cc2c(cc1OC(C)=O)CC(=O)CC1C2CC[C@@]2(C)C1CC[C@@H]2OC(C)=O (some centres undefined)			> 400 µM		
CCOc1cc2c(cc1O)C=CCC1C2CC[C@@]2(C)C1CC[C@@H]2O (some centres undefined)	0.85 µM	1.32 µM			
CCOc1cc2c(cc1OC(C)=O)/C(=N/OC)CCC1C2CC[C@@]2(C)C1CC[C@@H]2OC(C)=O (some centres undefined)			> 200 µM		
CCOc1cc2c(cc1O)CC(=O)CC1C2CC[C@@]2(C)C1CC[C@@H]2O (some centres undefined)	8.1 µM	11.5 µM			
CCOc1cc2c(cc1OC(C)=O)C(=O)C[C@@H]1[C@@H]2CC[C@]2(C)[C@@H](OC(C)=O)CC[C@@H]12			> 400 µM		
CCOc1cc2c(cc1O)C(=O)C[C@@H]1[C@@H]2CC[C@]2(C)[C@@H](O)CC[C@@H]12	3 µM	0.13 µM		19%	
CC(=O)O[C@H]1C(=O)[C@@]2(C)[C@H]([C@H](OC(=O)c3ccccc3)[C@]3(O)C[C@H](OC(=O)[C@H](O)[C@@H](NC(=O)c4ccccc4)c4ccccc4)C(C)=C1C3(C)C)[C@]1(OC(C)=O)CO[C@@H]1C[C@@H]2O [PACLITAXEL]			0.83 µM		
CCOc1cc2c(cc1O)C(=O)CCC1C2CC[C@@]2(C)C1CC[C@@H]2O (some centres undefined)	130 µM	14.4 µM			
CCOc1cc2c(cc1O)/C(=N/OC)CCC1C2CC[C@@]2(C)C1CC[C@@H]2O (some centres undefined)	30 µM	24 µM			
CCOc1cc2c(cc1O)C/C(=N\NS(=O)(=O)c1ccc(C)cc1)CC1C2CC[C@@]2(C)C1CC[C@@H]2O (some centres undefined)	80 µM	15.5 µM			
COc1cc2c(cc1O)CC[C@@H]1[C@@H]2CC[C@]2(C)[C@@H](O)CC[C@@H]12 [2-METHOXYESTRADIOL]	1.4 µM	1.3 µM		19%	60%
CCOc1cc2c(cc1O)C/C(=N\O)CC1C2CC[C@@]2(C)C1CC[C@@H]2O (some centres undefined)	99 µM	42.7 µM			
CCOc1cc2c(cc1O)[C@H](NC(C)=O)CC[C@H]1C3CC[C@H](O)[C@@]3(C)CC[C@H]21 (some centres undefined)		90.4 µM	> 200 µM		
CCOc1cc2c(cc1OC(C)=O)CCCC1C2CC[C@@]2(C)C1CC[C@@H]2OC(C)=O (some centres undefined)	> 400 µM	14.5 µM			
CCOc1cc2c(cc1O)/C(=N\O)C[C@@H]1[C@@H]2CC[C@]2(C)[C@@H](O)CC[C@@H]12		0.079 µM			
CCOc1cc2c(cc1O)CCCC1C2CC[C@@]2(C)C1CC[C@@H]2O (some centres undefined)	0.97 µM	2.48 µM		56%	
CCOc1cc2c(cc1O)CC[C@@H]1[C@@H]2CC[C@]2(C)[C@@H](O)CC[C@@H]12	0.66 µM	0.076 µM		51%	87%
CCOc1cc2c(cc1OC(C)=O)C(=O)CCC1C2CC[C@@]2(C)C1CC[C@@H]2O (some centres undefined)			360 µM		
CCOc1cc2c(cc1O)/C(=N/O)CCC1C2CC[C@@]2(C)C1CC[C@@H]2O (some centres undefined)	57 µM	51.3 µM			
